From the supplement of paper PMC10307832

What was measured:
Experiment in all cases: relative viability (nuclei count vs DMSO), 5 days (fraction); higher = more cells survive
Wnt-C59 + Phenformin = compound: CC1=NC=CC(=C1)C2=CC=C(C=C2)CC(=O)NC3=CC=C(C=C3)C4=CN=CC=C4 [Wnt-C59] + N=C(N)NC(=N)NCCc1ccccc1 [Phenformin] (partner 250 µM)
Summary of the method: (§1)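 Relative viability equals treated-well nuclei counts divided by vehicle-well nuclei counts. Counts came from 4× images of lung cancer cell lines grown in 1536-well plates for 5 days after pin-tool dosing on the day after seeding. Dosing used one drug alone or a fixed anchor-drug dose plus five library-drug doses (not always all listed) in √10 steps, and values are medians of duplicate plates.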

Wnt-C59 + Palbociclib = compound: CC1=NC=CC(=C1)C2=CC=C(C=C2)CC(=O)NC3=CC=C(C=C3)C4=CN=CC=C4 [Wnt-C59] + CC(=O)c1c(C)c2cnc(Nc3ccc(N4CCNCC4)cn3)nc2n(C2CCCC2)c1=O [Palbociclib] (partner 0.5 µM)
Summary of the method: as §1

Lapatinib + Navitoclax = compound: CS(=O)(=O)CCNCc1ccc(-c2ccc3ncnc(Nc4ccc(OCc5cccc(F)c5)c(Cl)c4)c3c2)o1 [Lapatinib] + CC1(C)CCC(c2ccc(Cl)cc2)=C(CN2CCN(c3ccc(C(=O)NS(=O)(=O)c4ccc(N[C@H](CCN5CCOCC5)CSc5ccccc5)c(S(=O)(=O)C(F)(F)F)c4)cc3)CC2)C1 [Navitoclax] (partner 0.5 µM)
Summary of the method: as §1

Wnt-C59 + Trametinib = compound: CC1=NC=CC(=C1)C2=CC=C(C=C2)CC(=O)NC3=CC=C(C=C3)C4=CN=CC=C4 [Wnt-C59] + CC(=O)Nc1cccc(-n2c(=O)n(C3CC3)c(=O)c3c(Nc4ccc(I)cc4F)n(C)c(=O)c(C)c32)c1 [Trametinib] (partner 0.02 µM)
Summary of the method: as §1

Cell Line | relative viability (Wnt-C59 + Phenformin; first compound 0.001 µM) | relative viability (Wnt-C59 + Phenformin; first compound 0.01 µM) | relative viability (Wnt-C59 + Phenformin; first compound 0.03162 µM) | relative viability (Wnt-C59 + Phenformin; first compound 0.1 µM) | relative viability (Wnt-C59 + Palbociclib; first compound 0.001 µM) | relative viability (Wnt-C59 + Palbociclib; first compound 0.01 µM) | relative viability (Wnt-C59 + Palbociclib; first compound 0.03162 µM) | relative viability (Wnt-C59 + Palbociclib; first compound 0.1 µM) | relative viability (Lapatinib + Navitoclax; first compound 0.02 µM) | relative viability (Lapatinib + Navitoclax; first compound 0.06325 µM) | relative viability (Lapatinib + Navitoclax; first compound 0.2 µM) | relative viability (Lapatinib + Navitoclax; first compound 0.6325 µM) | relative viability (Lapatinib + Navitoclax; first compound 2 µM) | relative viability (Wnt-C59 + Trametinib; first compound 0.001 µM) | relative viability (Wnt-C59 + Trametinib; first compound 0.01 µM) | relative viability (Wnt-C59 + Trametinib; first compound 0.03162 µM) | relative viability (Wnt-C59 + Trametinib; first compound 0.1 µM)
ABC-1 | 0.237 | 0.248 | 0.257 | 0.262 | 0.621 | 0.693 | 1.03 | 0.923 | – | – | – | – | – | – | – | – | –
SW 1573 | 0.343 | 0.41 | 0.431 | 0.365 | 0.413 | 0.368 | 0.466 | 0.408 | 0.902 | 0.974 | 1.16 | 0.92 | 0.882 | 0.515 | 0.551 | 0.582 | 0.515
NCI-H1299 | – | – | – | – | – | – | – | – | 1.05 | 1.06 | 1.05 | 1.01 | 1.06 | – | – | – | –
HCC-827 | 0.431 | 0.413 | 0.452 | 0.391 | 0.499 | 0.524 | 0.492 | 0.511 | 1 | 0.944 | 1.08 | 0.974 | 0.981 | 0.545 | 0.477 | 0.48 | 0.547
201T | 0.446 | 0.43 | 0.424 | 0.452 | 0.347 | 0.352 | 0.359 | 0.358 | 1.16 | 1.22 | 1.16 | 1.22 | 1.2 | 0.698 | 0.747 | 0.733 | 0.698
HCC-15 | 0.47 | 0.515 | 0.48 | 0.438 | 0.769 | 0.735 | 0.7 | 0.717 | – | 0.679 | 0.704 | 0.635 | 0.599 | 0.417 | 0.371 | 0.404 | 0.359
NCI-H2347 | 0.446 | 0.369 | 0.249 | 0.388 | 0.437 | 0.445 | 0.484 | 0.417 | 0.548 | 0.807 | 0.826 | 0.731 | 0.769 | 0.357 | 0.271 | 0.318 | 0.194
NCI-H596 | 0.746 | 0.71 | 0.923 | 0.722 | – | – | – | – | 0.978 | 0.95 | 0.922 | 0.97 | 0.706 | 0.734 | 0.704 | 0.879 | 0.876
LXF-289 | 0.552 | 0.535 | 0.552 | 0.503 | 0.624 | 0.551 | 0.602 | 0.606 | 0.901 | 0.928 | 0.957 | 0.94 | 0.85 | 0.617 | 0.629 | 0.73 | 0.632
NCI-H1755 | 0.486 | 0.631 | 0.609 | 0.632 | 0.454 | 0.447 | 0.438 | 0.416 | 0.974 | 1.02 | 0.97 | 1.01 | 0.936 | 0.797 | 0.792 | 0.759 | 0.719
NCI-H2405 | 0.413 | 0.336 | 0.366 | 0.384 | 0.516 | 0.506 | 0.498 | 0.473 | – | 0.769 | 0.868 | 0.881 | 0.72 | 0.655 | 0.587 | 0.505 | 0.574
NCI-H2170 | 0.436 | 0.395 | 0.405 | 0.443 | 0.393 | 0.397 | 0.416 | 0.367 | 0.546 | 0.393 | 0.287 | 0.218 | 0.184 | 0.923 | 0.864 | 1.03 | 0.974
NCI-H1648 | – | – | – | – | 0.288 | 0.241 | 0.259 | 0.23 | – | – | – | – | – | 0.564 | 0.45 | 0.63 | 0.491
NCI-H2342 | 0.616 | 0.63 | 0.756 | 0.746 | 0.491 | 0.488 | 0.55 | 0.504 | – | – | – | – | – | 0.786 | 0.757 | 0.91 | 0.797
HARA | 0.458 | 0.49 | 0.528 | 0.447 | 0.27 | 0.231 | 0.325 | 0.22 | 1.13 | 1.18 | 1.15 | 1.08 | 0.938 | 0.785 | 0.691 | 0.933 | 0.879
H3255 | 0.372 | 0.321 | 0.356 | 0.332 | 0.354 | 0.331 | 0.302 | 0.311 | 0.476 | 0.512 | 0.37 | 0.464 | 0.111 | 0.664 | 0.495 | 0.683 | 0.506
NCI-H1563 | 0.688 | 0.673 | 0.693 | 0.666 | – | – | – | – | – | – | – | – | – | – | – | – | –
NCI-H322M | 0.775 | 0.683 | 0.629 | 0.581 | 0.465 | 0.495 | 0.427 | 0.447 | 1.25 | 1.07 | 1.09 | 1.16 | 1.09 | 0.581 | 0.484 | 0.412 | 0.504
NCI-H1666 | 0.54 | 0.498 | 0.531 | 0.561 | 0.658 | 0.654 | 0.616 | 0.647 | 0.794 | 0.724 | 0.737 | 0.464 | 0.217 | 0.894 | 0.762 | 0.94 | 0.79
EBC-1 | – | – | – | – | – | – | – | – | 0.459 | 0.361 | 0.457 | 0.337 | 0.265 | – | – | – | –
A549 | 0.213 | 0.144 | 0.253 | 0.169 | – | – | – | – | 1.12 | 1.13 | 1.22 | 1.21 | 1.21 | – | – | – | –
NCI-H650 | 0.441 | 0.457 | 0.483 | 0.5 | 0.276 | 0.344 | 0.302 | 0.323 | – | – | – | – | – | 0.984 | 0.934 | 1.08 | 1.05
NCI-H1623 | 0.582 | 0.562 | 0.607 | 0.572 | – | – | – | – | – | – | – | – | – | – | – | – | –
NCI-H358 | 0.343 | 0.257 | 0.431 | 0.337 | 0.134 | 0.128 | 0.153 | 0.1 | – | – | – | – | – | 0.129 | 0.119 | 0.143 | 0.1
